Experimental data from patent US7078395B1, “Methods for treating or preventing cancer by preventing, inhibiting or arresting cell cycling” (priority 1999, dated 2006).
“And” between values parts separate entries of the source, which are not always exact repeats. Equal values may be shown once.

Columns and labels:
[1] = test system: MCF-7 breast cancer cells; assay: Cell Titer 96 cell proliferation assay, 4-day drug exposure; type: cell-based
Protocol: MCF-7 (ER+) and MDA-MB-231 (ER−) breast cancer cells were obtained from the American Type Culture Collection (Rockville, Md.). Cells were routinely cultured in 25 cm^2 culture flasks in Eagle's minimum essential medium (EMEM) with Hepes buffer (20 mM). This medium was supplemented with L-glutamine (2 mM), sodium hydrogen carbonate (10 mM), 1% non-essential amino acids and 5% (v/v) foetal calf serum (FCS). Before adding test compounds, cells were washed with phosphate-buffered saline (PBS) and treatments added in phenol-red free medium containing 2% stripped FCS and supplements. The effects of 2-MeOE1 or 2-MeOEMATE on the growth of MCF-7 cells was assessed using a Cell Titer 96 cell proliferation assay (Promega, Southampton, Hants, UK) according to the manufacturers' instructions. For this, cells (5000 per well) were cultured in medium containing phenol-red and 10% FCS and were exposed to a drug for 4 days before the assay was performed. For MDA-MB-231 cells, cell numbers were determined using a Coulter counter.

[2] = test system: breast tumour-derived fibroblasts; assay: Morphology and cell number (Coulter counter) of fibroblasts; type: cell-based; conditions: 24 h
Protocol: For the culture of fibroblasts, resected breast tumour tissue was minced and incubated in EMEM for 18-24 h at 37° C. with collagenase (200 μg/ml). The dispersed cells were harvested by centrifugation and washed twice with medium to remove collagenase. Dispersed cells were seeded into culture flasks and grown to confluence before passaging on a weekly basis. For experimental purposes 12 well multi-well plates or 25 cm^2 flasks were seeded with fibroblasts and grown to 70-80% confluency. Cells were washed with PBS and exposed to drugs for 24 h before determining cell numbers using a Coulter counter.
Photomicrographs of control and treated cells were taken under normal conditions of light and exposure using an Olympus SL35 Type 12 camera under an Olympus CK2 microscope (×100 magnification).

MCF-7 cells [3] = assay: Flow cytometry analysis of cell cycle distribution (propidium iodide); type: cell-based; conditions: 10 μM; for proportion of cells in the G1 phase: time-course study (untreated 66%)
Protocol: Cells were cultured in the presence of 2-MeOE1, 2-MeOEMATE or vehicle for up to 48 h. To examine the reversibility of the effects of 2-MeOEMATE on the cell cycle, cells were treated for 24 h with the drug after which cells were washed and cultured in fresh medium without drug for a further 24 h period.
To prepare cells for analysis of DNA content, cells were trypsinised (0.25% trypsin, 0.02% EDTA), washed with PBS and fixed with 70% ethanol. Cells were collected by centrifugation, re-suspended in PBS (1-2×10^6 cells/ml) and treated with RNase A (0.1 mg/ml) and stained with propidium iodide (0.05 mg/ml) for 30 min at room temperature. Cells were analysed with a flow cytometer (FACscan, Becton Dickinson Immunocytormetry System, Bedford Mass.).

MCF-7 cells [4] = assay: TUNEL analysis of apoptosis; type: cell-based; conditions: 10 μM, 48 h
Excerpt: The ability of 2-MeOEMATE to induce apoptosis in MCF-7 cells was examined by TUNEL analysis using an in situ cell death detection kit (Boehringer Manheim UK Ltd., Lewes, East Sussex, UK). Cells were fixed and permeabilised according to the manufacturers' instructions. Stained apoptotic cells were quantitated by flow cytometry.

[5] = test system: nitrosomethylurea-induced mammary tumours; assay: Growth of NMU-induced mammary tumours in intact rats; type: in vivo, rat
Protocol: The effect of 2-MeOEMATE on mammary tumour growth was examined in a preliminary study using Ludwig rats (Harlan Olac, Bicester, UK) in which tumours were induced by inoculation of NMU. Tumour development was monitored regularly and when 0.5-1.0 cm^3 in volume, animals received vehicle (propylene glycol, 200 μl/day, p.o.), 2-MeOEMATE (20 mg/kg/day, p.o.) or 2-MeOE1 (20 mg/kg/day, p.o.) daily for an 11 day period. Tumour length and width was measured with callipers and tumour volumes calculated as described (21).

MCF7 cells = assay: Proportion of cells in mitosis (PI stained cytospins, confocal microscopy); type: cell-based; conditions: 24 hours (control 4%)
Protocol: To determine the proportion of cells in mitosis, drug treated cells were collected by trypsinisation and cytospins prepared. Cells were fixed in ice cold methanol for 5 minutes, air dried and DNA was stained using propidium iodide (PI) (0.1 mg/ml in phosphate buffered saline (PBS) containing 10% (v/v) newborn calf serum and 0.05% (w/v) sodium azide). Cells were analysed by confocal microscopy using a Zeiss Axiovert 100 M microscope equipped with the LSM 510 confocal system (Zeiss, Jena, Germany).
Effect of estrone derivatives on mitosis in MCF7 cells. MCF7 cells were treated with the indicated compounds for 24 hours. Cells were recovered by trypsinisation and cytospins prepared. DNA was stained with PI and cells in mitosis (i.e., with condensed chromosomes) determined as a percentage of total cells.

[6] = (18, 19); cited from earlier work
[7] = Homo sapiens, MCF7, 96 h, read-out: inhibition of proliferation of MCF-7 cells

COc1cc2c(cc1OS(N)(=O)=O)CCC1C2CC[C@]2(C)C(=O)CCC12 (stereo partly drawn) [2-MeOEMATE, 2-methoxyoestrone-3-O-sulphamate]
inhibition of proliferation of MCF-7 cells ([1]; 10 μM, 4 days): no further effect on cell proliferation
inhibition at 0.1 µM [1, 7]: 29%
inhibition at 1 µM [1, 7]: 52%
effect on fibroblast morphology ([2]; 1 μM): little effect on cell morphology
effect on fibroblast morphology ([2]; 5 μM): rounding of a significant proportion of fibroblasts
effect on the number of fibroblasts [2]: did not reduce the number of fibroblasts
time by which accumulation of cells in the G2/M phase was apparent (MCF-7 cells [3]): ≤ 12 h
proportion of cells in the G1 phase (MCF-7 cells [3]; 12 h exposure): 50%
cell cycle distribution, G1 (MCF-7 cells [3]; 24 h): 10
cell cycle distribution, G2/M (MCF-7 cells [3]; 24 h): 60
cell cycle distribution, S (MCF-7 cells [3]; 24 h): 8
cell cycle distribution, Sub-G1 (MCF-7 cells [3]; 24 h): 22
cell cycle distribution, G1 (MCF-7 cells [3]; 24 h + 24 h drug-free culture): 8
cell cycle distribution, G2/M (MCF-7 cells [3]; 24 h + 24 h drug-free culture): 57
cell cycle distribution, S (MCF-7 cells [3]; 24 h + 24 h drug-free culture): 7
cell cycle distribution, Sub-G1 (MCF-7 cells [3]; 24 h + 24 h drug-free culture): 27
proportion of cells in the G1 phase (MCF-7 cells [3]; 24 h exposure): 23%
cell cycle distribution, G1 (MCF-7 cells [3]; 48 h): 14
cell cycle distribution, G2/M (MCF-7 cells [3]; 48 h): 58
cell cycle distribution, S (MCF-7 cells [3]; 48 h): 9
cell cycle distribution, Sub-G1 (MCF-7 cells [3]; 48 h): 18
fluorescently labelled (TUNEL positive) cells as proportion of the cell population (MCF-7 cells [4]): approximately 10%
reduction in tumour volume ([5]; 20 mg/kg/day, p.o., 11 days, individual animals): almost complete regression of ⅔ tumours and 8% and tumours regressed rapidly and were barely palpable and regressed almost completely
regrowth of regressed tumours ([5]; monitored for a further 33 days after 11-day dosing): no regrowth of tumours was detected
mitotic cells, percentage of total cells (MCF7 cells; 500 nM): 26%
mitotic cells, percentage of total cells (MCF7 cells; 5 μM): 38%
oestrogenicity [6]: devoid of oestrogenicity
